Measured values from ChEMBL document CHEMBL4325918, “Allosteric CB1 Receptor Modulators for the Treatment of CB1 Related Diseases and Conditions” (ACS Med Chem Lett, 2018).
Active and inactive are the calls of the source. No cut-off for these calls is given here.

Legend:
[1] = biological target: T1, Cannabinoid receptor 1 (Homo sapiens, UniProt P21554); experiment: Allosteric modulation of CB1 receptor (unknown origin) assessed as inhibition of CP55940-induced [35S]GTPgammaS binding; assay type: functional
[2] = Half life in Sprague-Dawley rat; assay type: ADME; details: in vivo
[3] = system: Rattus norvegicus; experiment: Reduction in cocaine-induced reinstatement of cocaine seeking behavior in Sprague-Dawley rat at 10 mg/kg; assay type: functional, organism-based
[4] = biological target: T1, Cannabinoid receptor 1; experiment: Agonist activity at CB1 receptor (unknown origin) relative to CP55940

T1 sequence (P21554 whole entry): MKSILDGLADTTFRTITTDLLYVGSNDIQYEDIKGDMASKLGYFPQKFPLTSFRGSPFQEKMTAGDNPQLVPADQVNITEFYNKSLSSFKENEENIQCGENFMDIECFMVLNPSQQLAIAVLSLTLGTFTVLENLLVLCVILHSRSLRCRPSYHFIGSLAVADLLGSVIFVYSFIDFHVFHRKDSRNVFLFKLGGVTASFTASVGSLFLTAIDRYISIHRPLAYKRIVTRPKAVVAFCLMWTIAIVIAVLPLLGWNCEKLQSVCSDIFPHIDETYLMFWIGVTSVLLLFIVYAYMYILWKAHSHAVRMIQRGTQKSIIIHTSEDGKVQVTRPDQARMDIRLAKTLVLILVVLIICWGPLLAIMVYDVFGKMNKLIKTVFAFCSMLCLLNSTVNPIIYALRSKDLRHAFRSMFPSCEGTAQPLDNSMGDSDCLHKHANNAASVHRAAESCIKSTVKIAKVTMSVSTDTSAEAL

Row | Compound | IC50 [1] | half-life [2] | Emax [4] | Activity [3]
1 | O=C(Nc1ccc(Cl)cc1)Nc1cccc(-c2cccc([N+](=O)[O-])c2)c1 | 452 nM | – | – | –
2 | O=C(Nc1ccc(Cl)cc1)Nc1cccc(-c2ccc(F)cc2F)c1 | 353 nM | – | – | –
3 | O=C(Nc1ccc(Cl)cc1)Nc1cccc(N2CCC2)c1 | 1380 nM | – | – | –
4 | O=C(Nc1ccc(Cl)cc1)Nc1cccc(-c2ccc(F)cc2)c1 | 151 nM | 5 h | – | Active
5 | O=C(Nc1ccc(Cl)cc1)Nc1cccc(-c2ccoc2)c1 | 440 nM | – | – | –
6 | O=C(Nc1ccc(Cl)cc1)Nc1cccc(-c2cc(Cl)cc(Cl)c2)c1 | 299 nM | – | – | –
7 | Cc1cc(-c2cccc(NC(=O)Nc3ccc(Cl)cc3)c2)cs1 | 776 nM | – | 3.7% | –

More lines, main results first:

Row | IC50 [1] | half-life [2] | Emax [4] | Compound | Activity [3]
8 | 2650 nM | – | – | O=C(Nc1ccc(Cl)cc1)Nc1cccc(-c2ccccn2)c1 | –
9 | 164 nM | – | 28.9% | O=C(Nc1ccc(Cl)cc1)Nc1cccc(-c2ccsc2)c1 | –
10 | 372 nM | – | 4.6% | Cc1ccc(-c2cccc(NC(=O)Nc3ccc(Cl)cc3)c2)s1 | –
11 | 437 nM | – | – | O=C(Nc1ccc(Cl)cc1)Nc1cccc(-c2ccccc2)c1 | –
